These results are taken from patent publication US11541055B2, “Inhibitors of human immunodeficiency virus replication” (ViiV Healthcare UK (No. 5) LIMITED, priority 2018, dated 2023).

pEC50: −log10 of the molar value.

Data set [1] is described as follows: Compound cytotoxicity, XTT-based colorimetric assay. Format: cell-based. As to conditions: human; uninfected MT2 cells, day 4, XTT. The essentials: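 Run under the antiviral-assay protocol but without virus. Viability was read on day 4 and CC50 values were derived from the readout.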
Data set [2] relates to recombinant NL4-3 virus (Renilla luciferase) in MT-2 cells. Briefly: HIV cell culture assay (antiviral activity, luciferase readout). The class given is cell-based. As to conditions: Renilla, NL43. The essentials: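 MT-2 cells were infected with recombinant NL4-3 virus carrying Renilla luciferase in place of part of nef. Cells were cultured 4–5 days with serially diluted compound, and luciferase was measured with a live-cell substrate. EC50 was calculated from the median effect equation.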

On to `COc1nccnc1-c1ccc2c(=O)n(-c3ccc(Cl)c4c(NS(C)(=O)=O)nn(C)c34)c([C@H](Cc3cc(F)cc(F)c3)NC(=O)Cn3nc(C(F)F)c4c3C(F)(F)[C@@H]3C[C@H]43)nc2c1` (atropisomer, axis not shown; (P)) [Example 15, N—((S)-1-((3P)-3-(4-chloro-1-methyl-3-(methylsulfonamido)-1H-indazol-7-yl)-7-(3-methoxypyrazin-2-yl)-4-oxo-3,4-dihydroquinazolin-2-yl)-2-(3,5-difluorophenyl)ethyl)-2-((3bS,4aR)-3-(difluoromethyl)-5,5-difluoro-3b,4,4a,5-tetrahydro-1H-cyclopropa[3,4]cyclopenta[1,2-c]pyrazol-1-yl)acetamide], for which the half-maximal cytotoxic concentration (CC50) at 4 days in data set [1] was more than 500 nM. In data set [2], the pEC50 was 9.82.
For `CC(C)c1nccnc1-c1ccc2c(=O)n(-c3ccc(Cl)c4c(NS(C)(=O)=O)nn(C)c34)c([C@H](Cc3cc(F)cc(F)c3)NC(=O)Cn3nc(C(F)F)c4c3C(F)(F)[C@@H]3C[C@H]43)nc2c1` (atropisomer, axis not shown; (P)) [Example 16, N—((S)-1-((3P)-3-(4-chloro-1-methyl-3-(methylsulfonamido)-1H-indazol-7-yl)-7-(3-isopropylpyrazin-2-yl)-4-oxo-3,4-dihydroquinazolin-2-yl)-2-(3,5-difluorophenyl)ethyl)-2-((3bS,4aR)-3-(difluoromethyl)-5,5-difluoro-3b,4,4a,5-tetrahydro-1H-cyclopropa[3,4]cyclopenta[1,2-c]pyrazol-1-yl)acetamide], in that order: more than 500 nM and 9.92.
In data set [1], `CCc1nccnc1-c1ccc2c(=O)n(-c3ccc(Cl)c4c(NS(C)(=O)=O)nn(C)c34)c([C@H](Cc3cc(F)cc(F)c3)NC(=O)Cn3nc(C(F)F)c4c3C(F)(F)[C@@H]3C[C@H]43)nc2c1` (atropisomer, axis not shown; (P)) [Example 17, N—((S)-1-((3P)-3-(4-chloro-1-methyl-3-(methylsulfonamido)-1H-indazol-7-yl)-7-(3-ethylpyrazin-2-yl)-4-oxo-3,4-dihydroquinazolin-2-yl)-2-(3,5-difluorophenyl)ethyl)-2-((3bS,4aR)-3-(difluoromethyl)-5,5-difluoro-3b,4,4a,5-tetrahydro-1H-cyclopropa[3,4]cyclopenta[1,2-c]pyrazol-1-yl)acetamide] gave a CC50 at 4 days of more than 500 nM. In data set [2], the pEC50 was 9.96.
For `Cn1nc(NS(C)(=O)=O)c2c(Cl)ccc(-n3c([C@H](Cc4cc(F)cc(F)c4)NC(=O)Cn4nc(C(F)F)c5c4C(F)(F)[C@@H]4C[C@H]54)nc4cc(-c5nccnc5CO)ccc4c3=O)c21` (atropisomer, axis not shown; (P)) [Example 18, N—((S)-1-((3P)-3-(4-chloro-1-methyl-3-(methylsulfonamido)-1H-indazol-7-yl)-7-(3-(hydroxymethyl)pyrazin-2-yl)-4-oxo-3,4-dihydroquinazolin-2-yl)-2-(3,5-difluorophenyl)ethyl)-2-((3bS,4aR)-3-(difluoromethyl)-5,5-difluoro-3b,4,4a,5-tetrahydro-1H-cyclopropa[3,4]cyclopenta[1,2-c]pyrazol-1-yl)acetamide], in that order: more than 500 nM and 10.00.
Compound `COc1nc2ccccc2nc1-c1ccc2c(=O)n(-c3ccc(Cl)c4c(NS(C)(=O)=O)nn(C)c34)c([C@H](Cc3cc(F)cc(F)c3)NC(=O)Cn3nc(C(F)F)c4c3C(F)(F)[C@@H]3C[C@H]43)nc2c1` (atropisomer, axis not shown; (P)) [Example 19, N—((S)-1-((3P)-3-(4-chloro-1-methyl-3-(methylsulfonamido)-1H-indazol-7-yl)-7-(3-methoxyquinoxalin-2-yl)-4-oxo-3,4-dihydroquinazolin-2-yl)-2-(3,5-difluorophenyl)ethyl)-2-((3bS,4aR)-3-(difluoromethyl)-5,5-difluoro-3b,4,4a,5-tetrahydro-1H-cyclopropa[3,4]cyclopenta[1,2-c]pyrazol-1-yl)acetamide] came in with a 50% cytotoxic concentration (CC50) at 4 days in data set [1] of more than 500 nM. Besides, in data set [2], the pEC50 is 8.26.
The compound `Cn1nc(NS(C)(=O)=O)c2c(Cl)ccc(-n3c([C@H](Cc4cc(F)cc(F)c4)NC(=O)Cn4nc(C(F)F)c5c4C(F)(F)[C@@H]4C[C@H]54)nc4cc(-c5ncccc5F)ccc4c3=O)c21` (atropisomer, axis not shown; (P)) [Example 21, N—((S)-1-((3P)-3-(4-chloro-1-methyl-3-(methylsulfonamido)-1H-indazol-7-yl)-7-(3-fluoropyridin-2-yl)-4-oxo-3,4-dihydroquinazolin-2-yl)-2-(3,5-difluorophenyl)ethyl)-2-((3bS,4aR)-3-(difluoromethyl)-5,5-difluoro-3b,4,4a,5-tetrahydro-1H-cyclopropa[3,4]cyclopenta[1,2-c]pyrazol-1-yl)acetamide] yielded a 50% cytotoxic concentration (CC50) at 4 days in data set [1] of more than 500 nM. For the same compound, the pEC50 in data set [2] is 10.04.
`Cc1ccc(F)c(-c2ccc3c(=O)n(-c4ccc(Cl)c5c(NS(C)(=O)=O)nn(C)c45)c([C@H](Cc4cc(F)cc(F)c4)NC(=O)Cn4nc(C(F)F)c5c4C(F)(F)[C@@H]4C[C@H]54)nc3c2)n1` (atropisomer, axis not shown; (P)) [Example 22, N—((S)-1-((3P)-3-(4-chloro-1-methyl-3-(methylsulfonamido)-1H-indazol-7-yl)-7-(3-fluoro-6-methylpyridin-2-yl)-4-oxo-3,4-dihydroquinazolin-2-yl)-2-(3,5-difluorophenyl)ethyl)-2-((3bS,4aR)-3-(difluoromethyl)-5,5-difluoro-3b,4,4a,5-tetrahydro-1H-cyclopropa[3,4]cyclopenta[1,2-c]pyrazol-1-yl)acetamide]: the half-maximal cytotoxic concentration (CC50) at 4 days in data set [1] is more than 500 nM. In data set [2], the negative-log EC50 (pEC50) is 9.96.
For `Cn1nc(NS(C)(=O)=O)c2c(Cl)ccc(-n3c([C@H](Cc4cc(F)cc(F)c4)NC(=O)Cn4nc(C(F)F)c5c4C(F)(F)[C@@H]4C[C@H]54)nc4cc(-c5ccccc5C(F)(F)F)ccc4c3=O)c21` (atropisomer, axis not shown; (P)) [Example 24, N—((S)-1-((3P)-3-(4-chloro-1-methyl-3-(methylsulfonamido)-1H-indazol-7-yl)-4-oxo-7-(2-(trifluoromethyl)phenyl)-3,4-dihydroquinazolin-2-yl)-2-(3,5-difluorophenyl)ethyl)-2-((3bS,4aR)-3-(difluoromethyl)-5,5-difluoro-3b,4,4a,5-tetrahydro-1H-cyclopropa[3,4]cyclopenta[1,2-c]pyrazol-1-yl)acetamide], in that order: more than 500 nM and 9.08.
For `Cn1nc(NS(C)(=O)=O)c2c(Cl)ccc(-n3c([C@H](Cc4cc(F)cc(F)c4)NC(=O)Cn4nc(C(F)F)c5c4C(F)(F)[C@@H]4C[C@H]54)nc4cc(-c5ccccc5OC(F)F)ccc4c3=O)c21` (atropisomer, axis not shown; (P)) [Example 25, N—((S)-1-((3P)-3-(4-chloro-1-methyl-3-(methylsulfonamido)-1H-indazol-7-yl)-7-(2-(difluoromethoxy)phenyl)-4-oxo-3,4-dihydroquinazolin-2-yl)-2-(3,5-difluorophenyl)ethyl)-2-((3bS,4aR)-3-(difluoromethyl)-5,5-difluoro-3b,4,4a,5-tetrahydro-1H-cyclopropa[3,4]cyclopenta[1,2-c]pyrazol-1-yl)acetamide], in that order: more than 500 nM and 9.07.
In turn, `Cc1ncc(-c2ccc3c(=O)n(-c4ccc(Cl)c5c(NS(C)(=O)=O)nn(C)c45)c([C@H](Cc4cc(F)cc(F)c4)NC(=O)Cn4nc(C(F)F)c5c4C(F)(F)[C@@H]4C[C@H]54)nc3c2)s1` (atropisomer, axis not shown; (P)) [Example 26, N—((S)-1-((3P)-3-(4-chloro-1-methyl-3-(methylsulfonamido)-1H-indazol-7-yl)-7-(2-methylthiazol-5-yl)-4-oxo-3,4-dihydroquinazolin-2-yl)-2-(3,5-difluorophenyl)ethyl)-2-((3bS,4aR)-3-(difluoromethyl)-5,5-difluoro-3b,4,4a,5-tetrahydro-1H-cyclopropa[3,4]cyclopenta[1,2-c]pyrazol-1-yl)acetamide] had a CC50 at 4 days in data set [1] of more than 500 nM. For the same compound, the pEC50 in data set [2] is 9.96.
For `CN(c1ccccc1-c1ccc2c(=O)n(-c3ccc(Cl)c4c(NS(C)(=O)=O)nn(C)c34)c([C@H](Cc3cc(F)cc(F)c3)NC(=O)Cn3nc(C(F)F)c4c3C(F)(F)[C@@H]3C[C@H]43)nc2c1)S(C)(=O)=O` (atropisomer, axis not shown; (P)) [Example 27, N—((S)-1-((3P)-3-(4-chloro-1-methyl-3-(methylsulfonamido)-1H-indazol-7-yl)-7-(2-(N-methylmethylsulfonamido)phenyl)-4-oxo-3,4-dihydroquinazolin-2-yl)-2-(3,5-difluorophenyl)ethyl)-2-((3bS,4aR)-3-(difluoromethyl)-5,5-difluoro-3b,4,4a,5-tetrahydro-1H-cyclopropa[3,4]cyclopenta[1,2-c]pyrazol-1-yl)acetamide], in that order: more than 500 nM and 9.31.
Compound `Cn1nc(NS(C)(=O)=O)c2c(Cl)ccc(-n3c([C@H](Cc4cc(F)cc(F)c4)NC(=O)Cn4nc(C(F)F)c5c4C(F)(F)[C@@H]4C[C@H]54)nc4cc(-c5ncccc5C(F)(F)F)ccc4c3=O)c21` (atropisomer, axis not shown; (P)) [Example 30, N—((S)-1-((3P)-3-(4-chloro-1-methyl-3-(methylsulfonamido)-1H-indazol-7-yl)-4-oxo-7-(3-(trifluoromethyl)pyridin-2-yl)-3,4-dihydroquinazolin-2-yl)-2-(3,5-difluorophenyl)ethyl)-2-((3bS,4aR)-3-(difluoromethyl)-5,5-difluoro-3b,4,4a,5-tetrahydro-1H-cyclopropa[3,4]cyclopenta[1,2-c]pyrazol-1-yl)acetamide] showed a half-maximal cytotoxic concentration (CC50) at 4 days in data set [1] of more than 500 nM. Moreover, in data set [2], the pEC50 is 9.66.
